The test system of assay [1] is Streptococcus. The assay can be described thus: GAS bacterial viability reduction – luminescence, BacTiter-Glo, strain UMAA2166, counter-screen for streptokinase expression inhibitor project, dose response (AID 2477). The format is functional, organism-based. (In general: Counterscreens check selectivity or assay interference.)
In assay [2] the target is T1, Streptokinase A (Streptococcus pyogenes serotype M1, UniProt P10520).
T1 sequence (P10520 whole entry): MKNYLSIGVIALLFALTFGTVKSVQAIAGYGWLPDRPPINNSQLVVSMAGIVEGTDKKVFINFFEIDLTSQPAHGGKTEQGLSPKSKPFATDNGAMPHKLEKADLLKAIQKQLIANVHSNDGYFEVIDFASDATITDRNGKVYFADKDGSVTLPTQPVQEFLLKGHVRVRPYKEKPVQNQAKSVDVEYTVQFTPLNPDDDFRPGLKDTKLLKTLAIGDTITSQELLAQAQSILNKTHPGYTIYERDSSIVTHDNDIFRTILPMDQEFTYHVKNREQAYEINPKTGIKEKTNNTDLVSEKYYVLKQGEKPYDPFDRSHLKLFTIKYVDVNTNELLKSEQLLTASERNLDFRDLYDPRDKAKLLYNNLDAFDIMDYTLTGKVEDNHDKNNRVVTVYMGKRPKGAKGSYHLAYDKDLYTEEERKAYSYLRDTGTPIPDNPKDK
The assay can be described thus: Absorbance Microorganism-Based Dose Response Follow up to Identify Inhibitors of Streptokinase Expression. [Related pubchem assays: 1677 (Project Summary), 1915, 1914, 1902 (Retest at Dose), 1900 (Counter Screen), 1662 (Primary HTS)]. The assay is classed as functional, Streptococcus pyogenes M1 GAS.

Assay [3] is described as follows: Trypanosoma cruzi growth suppression in host cells – NIH3T3 host cells, beta-gal luminescence, confirmation (AID 2044).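 Note: intracellular parasites grown in NIH/3T3 mouse fibroblasts as host cells; luminescent beta-galactosidase reporter signal from transgenic T. cruzi replicating inside host cells; inhibitors lower the luminescence signal.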 The assay is classed as functional, cell-based.
Assay [4] is described as follows: fluconazole-exposed Candida albicans growth modulators – fluorescence, retest, confirmation (AID 2467). The assay is classed as functional, cell-based.
Assay [5] deals with INS1. Put plainly: INS-1E survival protection against cytokine death – cell-based, luminescence, retest, dose response (AID 449756).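 Note: cell death triggered by IL-1 beta plus TNF-alpha plus IFN-gamma mixture; protective hits raise ATP signal compared with cytokine alone wells.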 The format is functional. Conditions: Rattus norvegicus.
In assay [6] the target is T2, Mannose-6-phosphate isomerase (Homo sapiens, UniProt P34949).
T2 sequence (P34949 whole entry): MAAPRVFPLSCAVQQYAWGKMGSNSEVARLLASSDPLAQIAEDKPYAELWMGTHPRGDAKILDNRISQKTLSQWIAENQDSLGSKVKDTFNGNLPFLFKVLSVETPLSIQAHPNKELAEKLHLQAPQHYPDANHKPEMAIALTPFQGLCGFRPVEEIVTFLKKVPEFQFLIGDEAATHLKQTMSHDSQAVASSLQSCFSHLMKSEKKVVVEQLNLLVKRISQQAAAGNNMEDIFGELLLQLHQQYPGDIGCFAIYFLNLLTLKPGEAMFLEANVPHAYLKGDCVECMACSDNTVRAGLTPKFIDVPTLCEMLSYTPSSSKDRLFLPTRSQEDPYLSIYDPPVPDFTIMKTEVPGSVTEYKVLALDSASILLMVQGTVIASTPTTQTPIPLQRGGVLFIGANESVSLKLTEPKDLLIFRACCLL
The assay can be described thus: MPI inhibition at elevated mannose 6-phosphate – biochemical, fluorescence intensity, high mannose 6-phosphate, primary screen (AID 1220).

Assay [7] is described as follows: NIH-3T3 fibroblast cytotoxicity, dose response, cytotoxicity control, cell-based, fluorescence, Alamar Blue, secondary assay (AID 2327).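 Note: NIH-3T3 mouse fibroblasts cultured with fluconazole at 8 µg/mL.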 The format is functional.
Assay [8] concerns the target Nonstructural protein 1 (Influenza A virus, UniProt Q194T2). The assay is classed as functional, Influenza A virus (A/California/07/2009(H1N1)).
The nature of assay [9]: NIH3T3 cell viability loss – ATP luminescence, mouse fibroblasts, counter-screen, dose response (AID 2010).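 Note: cells exposed to compound for about 90 hours before reading.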 The assay is classed as functional, cell-based.
A short description of assay [10]: Counterscreen for IDE inhibitors: Luminescence-based cell-based high throughput dose response assay to identify compounds that are cytotoxic to HEK cells. [Related pubchem assays: 434962 (Primary screen (IDE inhibitors in singlicate)), 449730 (Counterscreen (Cytotoxicity in triplicate)), 435028 (Confirmation (IDE inhibitors in triplicate)) …. The format is functional. The conditions noted are these: HEK293.

Assay [11] concerns the target T3, Insulin-degrading enzyme (Homo sapiens, UniProt P14735).
T3 sequence (P14735 whole entry): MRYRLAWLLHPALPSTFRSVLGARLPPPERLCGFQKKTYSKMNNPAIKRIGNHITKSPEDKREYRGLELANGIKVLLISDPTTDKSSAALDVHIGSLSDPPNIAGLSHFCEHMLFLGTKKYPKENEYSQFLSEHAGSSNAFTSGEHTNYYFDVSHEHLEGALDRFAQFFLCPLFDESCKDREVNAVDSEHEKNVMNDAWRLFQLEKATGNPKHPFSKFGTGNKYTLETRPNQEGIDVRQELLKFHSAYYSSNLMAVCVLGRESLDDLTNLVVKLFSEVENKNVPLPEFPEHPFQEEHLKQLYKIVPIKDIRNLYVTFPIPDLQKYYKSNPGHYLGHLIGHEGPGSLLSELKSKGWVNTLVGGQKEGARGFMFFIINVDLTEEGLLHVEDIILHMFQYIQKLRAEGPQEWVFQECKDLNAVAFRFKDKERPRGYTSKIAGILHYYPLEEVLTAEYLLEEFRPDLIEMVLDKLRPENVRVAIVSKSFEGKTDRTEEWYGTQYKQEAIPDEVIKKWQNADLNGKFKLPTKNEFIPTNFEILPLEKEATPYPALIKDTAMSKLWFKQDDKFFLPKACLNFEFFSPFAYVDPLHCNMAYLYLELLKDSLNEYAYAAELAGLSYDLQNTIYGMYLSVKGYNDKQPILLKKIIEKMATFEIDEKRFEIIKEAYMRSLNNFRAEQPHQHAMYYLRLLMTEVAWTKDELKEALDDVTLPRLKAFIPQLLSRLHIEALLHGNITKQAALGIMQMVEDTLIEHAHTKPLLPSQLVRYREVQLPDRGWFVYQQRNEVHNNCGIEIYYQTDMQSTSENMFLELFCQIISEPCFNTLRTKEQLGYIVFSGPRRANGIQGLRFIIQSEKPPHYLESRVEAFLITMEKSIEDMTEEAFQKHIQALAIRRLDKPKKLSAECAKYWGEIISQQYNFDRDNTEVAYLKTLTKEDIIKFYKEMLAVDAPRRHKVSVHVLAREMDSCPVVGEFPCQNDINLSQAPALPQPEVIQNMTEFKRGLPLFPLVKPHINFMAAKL
Put plainly: Dose Response: Fluorescence polarization-based cell-based high throughput dose response assay for inhibitors of insulin-degrading enzyme (IDE). [Related pubchem assays: 434962 (Primary screen (IDE inhibitors in singlicate)), 449730 (Counterscreen (Cytotoxicity in triplicate)), 435028 (Confirmation (IDE inhibitors in triplicate)), 434984 (Summary …. The format is functional. Background: In fluorescence polarisation assays a small probe gives low polarisation when free and higher when bound to something large.

Assay [12] is described as follows: HPDE-C7 pancreatic duct cell viability loss – fluorescence, HTS (AID 430). The conditions noted are these: Homo sapiens. The assay is classed as functional, cell-based.
Assay [13] can be described thus: viability loss of HPDE-C7K cells – cell-based, fluorescence, HTS, primary screen (AID 431). The format is functional. Conditions: Homo sapiens.
For assay [14], the target named is T4, Voltage-gated N-type calcium channel alpha-1B subunit/Amyloid beta A4 precursor protein-binding family A member 1 (Homo sapiens, UniProt Q00975+Q02410). Put plainly: disruptors of Mint-PDZ/N-type channel peptide interaction – biochemical, HTRF, SAR follow-up (AID 2489). The format is functional. On the technique in general: TR-FRET usually uses a lanthanide donor and a delayed reading to cut background.
T4 sequence (Q00975 whole entry): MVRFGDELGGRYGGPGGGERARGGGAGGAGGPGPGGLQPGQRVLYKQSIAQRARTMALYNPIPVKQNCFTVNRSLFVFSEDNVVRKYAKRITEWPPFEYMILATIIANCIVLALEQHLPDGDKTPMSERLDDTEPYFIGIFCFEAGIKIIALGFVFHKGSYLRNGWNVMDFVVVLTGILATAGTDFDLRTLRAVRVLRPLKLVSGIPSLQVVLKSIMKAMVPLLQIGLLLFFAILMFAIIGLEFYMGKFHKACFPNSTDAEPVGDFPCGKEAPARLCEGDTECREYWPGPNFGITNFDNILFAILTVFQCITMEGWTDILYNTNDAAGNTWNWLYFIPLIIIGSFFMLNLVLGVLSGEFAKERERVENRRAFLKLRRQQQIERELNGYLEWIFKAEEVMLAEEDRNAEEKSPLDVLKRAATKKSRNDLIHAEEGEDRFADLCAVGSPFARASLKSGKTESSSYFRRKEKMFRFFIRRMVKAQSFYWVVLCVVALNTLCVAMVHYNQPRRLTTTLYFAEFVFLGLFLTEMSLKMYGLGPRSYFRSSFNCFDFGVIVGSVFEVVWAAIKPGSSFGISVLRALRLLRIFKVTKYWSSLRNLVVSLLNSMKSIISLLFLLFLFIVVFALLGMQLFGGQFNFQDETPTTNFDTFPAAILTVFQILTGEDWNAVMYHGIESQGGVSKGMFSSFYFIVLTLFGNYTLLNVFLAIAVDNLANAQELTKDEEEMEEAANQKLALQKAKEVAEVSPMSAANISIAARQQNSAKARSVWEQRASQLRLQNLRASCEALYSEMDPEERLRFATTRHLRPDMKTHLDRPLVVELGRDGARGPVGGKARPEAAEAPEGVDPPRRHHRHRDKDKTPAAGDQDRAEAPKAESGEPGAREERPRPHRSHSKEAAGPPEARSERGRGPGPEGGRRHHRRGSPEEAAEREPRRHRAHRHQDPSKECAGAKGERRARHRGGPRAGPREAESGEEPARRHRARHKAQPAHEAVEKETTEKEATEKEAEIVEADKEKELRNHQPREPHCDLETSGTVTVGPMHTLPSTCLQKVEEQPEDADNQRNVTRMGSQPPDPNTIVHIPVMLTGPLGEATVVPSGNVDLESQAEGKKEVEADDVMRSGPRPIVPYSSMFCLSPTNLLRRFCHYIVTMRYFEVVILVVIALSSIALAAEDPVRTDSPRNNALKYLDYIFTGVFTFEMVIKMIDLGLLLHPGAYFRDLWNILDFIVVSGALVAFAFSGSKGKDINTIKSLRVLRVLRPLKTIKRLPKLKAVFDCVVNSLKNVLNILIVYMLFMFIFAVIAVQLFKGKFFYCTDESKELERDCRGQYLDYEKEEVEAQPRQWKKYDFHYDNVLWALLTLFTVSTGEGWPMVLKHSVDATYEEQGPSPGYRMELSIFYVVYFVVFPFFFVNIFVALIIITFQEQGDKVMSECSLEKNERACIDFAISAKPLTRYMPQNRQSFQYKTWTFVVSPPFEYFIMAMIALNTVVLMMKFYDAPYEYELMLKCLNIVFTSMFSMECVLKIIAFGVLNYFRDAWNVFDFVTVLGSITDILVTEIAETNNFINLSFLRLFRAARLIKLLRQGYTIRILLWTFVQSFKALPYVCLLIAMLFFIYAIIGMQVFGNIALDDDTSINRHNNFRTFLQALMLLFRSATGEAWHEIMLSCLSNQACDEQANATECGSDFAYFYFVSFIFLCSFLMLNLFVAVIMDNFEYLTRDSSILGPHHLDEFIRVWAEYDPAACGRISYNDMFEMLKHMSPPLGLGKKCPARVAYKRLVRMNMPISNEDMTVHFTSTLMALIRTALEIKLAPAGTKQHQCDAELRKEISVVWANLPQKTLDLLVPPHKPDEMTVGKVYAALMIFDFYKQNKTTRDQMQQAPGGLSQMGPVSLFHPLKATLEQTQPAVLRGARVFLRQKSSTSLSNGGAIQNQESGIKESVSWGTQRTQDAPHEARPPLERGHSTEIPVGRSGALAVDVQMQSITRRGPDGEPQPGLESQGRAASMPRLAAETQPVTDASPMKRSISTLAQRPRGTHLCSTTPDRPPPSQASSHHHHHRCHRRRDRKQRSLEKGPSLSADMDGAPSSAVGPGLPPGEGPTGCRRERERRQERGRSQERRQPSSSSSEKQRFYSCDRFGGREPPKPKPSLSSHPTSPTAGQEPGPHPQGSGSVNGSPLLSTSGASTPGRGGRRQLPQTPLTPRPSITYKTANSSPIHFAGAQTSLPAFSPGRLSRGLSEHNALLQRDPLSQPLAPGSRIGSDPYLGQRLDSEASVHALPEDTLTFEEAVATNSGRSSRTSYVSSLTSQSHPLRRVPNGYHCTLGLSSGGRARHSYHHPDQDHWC
T4 sequence (Q02410 whole entry): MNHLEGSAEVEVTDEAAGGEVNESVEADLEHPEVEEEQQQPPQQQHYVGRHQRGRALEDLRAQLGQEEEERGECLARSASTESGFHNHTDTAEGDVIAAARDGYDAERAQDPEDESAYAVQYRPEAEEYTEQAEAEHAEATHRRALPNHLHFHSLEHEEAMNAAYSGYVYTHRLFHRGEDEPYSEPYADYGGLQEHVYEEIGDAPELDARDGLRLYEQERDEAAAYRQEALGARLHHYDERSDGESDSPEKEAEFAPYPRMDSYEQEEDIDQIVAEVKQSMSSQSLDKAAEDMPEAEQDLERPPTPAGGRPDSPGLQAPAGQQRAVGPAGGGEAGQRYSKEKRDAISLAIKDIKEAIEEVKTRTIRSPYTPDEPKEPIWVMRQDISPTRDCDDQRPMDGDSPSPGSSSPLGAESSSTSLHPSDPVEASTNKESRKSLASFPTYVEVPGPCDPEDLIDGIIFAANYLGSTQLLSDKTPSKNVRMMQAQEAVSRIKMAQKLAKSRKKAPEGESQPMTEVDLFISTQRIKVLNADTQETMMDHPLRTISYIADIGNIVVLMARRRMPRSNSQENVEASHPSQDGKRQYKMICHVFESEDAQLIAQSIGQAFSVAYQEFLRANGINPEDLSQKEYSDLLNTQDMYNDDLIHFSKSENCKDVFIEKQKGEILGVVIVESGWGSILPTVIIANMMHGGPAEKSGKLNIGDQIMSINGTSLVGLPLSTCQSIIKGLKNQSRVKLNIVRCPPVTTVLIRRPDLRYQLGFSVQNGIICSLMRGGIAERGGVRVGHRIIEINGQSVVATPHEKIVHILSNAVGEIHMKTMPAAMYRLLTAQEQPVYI

For assay [15], the target named is T4, Voltage-gated N-type calcium channel alpha-1B subunit/Amyloid beta A4 precursor protein-binding family A member 1. The assay can be described thus: disruptors of Mint-PDZ/N-type channel peptide interaction – biochemical, HTRF, set 2, SAR follow-up (AID 434980). The assay is classed as functional.
Assay [16] deals with Prothrombin (Homo sapiens, UniProt P00734). Put plainly: Thrombin 1536 HTS Dose Response Confirmation. [Related pubchem assays: 1046 (Thrombin 1536 HTS; hits were confirmed in this assay)]. The format is functional.
Assay [17] concerns the target Voltage-dependent T-type calcium channel subunit alpha-1H (Homo sapiens, UniProt O95180). The format is functional.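 Note: channel activity triggered by adding a high calcium stimulation buffer.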
A short description of assay [18]: Luminescence Cell-Based Dose Retest to Confirm Inhibitors of Cancer Stem Cells. [Related pubchem assays (depositor defined):AID2717, AID2721]. The assay is classed as functional. Conditions: Homo sapiens.

Where a name gives a salt, the structure may show the parent alone. Calls of active or inactive are those of the source.

Chain of Nonstructural protein 1 (Q194T2 whole entry): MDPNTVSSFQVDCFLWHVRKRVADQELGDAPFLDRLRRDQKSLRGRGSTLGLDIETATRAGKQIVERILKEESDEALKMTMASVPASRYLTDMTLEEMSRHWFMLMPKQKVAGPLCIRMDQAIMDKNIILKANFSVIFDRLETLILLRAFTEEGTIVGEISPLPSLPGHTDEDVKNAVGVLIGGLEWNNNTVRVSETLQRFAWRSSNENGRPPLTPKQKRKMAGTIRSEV

Usually EC50 stands for the concentration that produces a half-maximal response. In the case of `COc1nc(-c2ccccc2)nc2ccccc12`, the values for the EC50 in [1] and in assay [2] were > 500 µM (not active) and 75.4 µM (active), respectively.

The term AC50 denotes the concentration giving half of the maximal activity seen. As usually defined, the IC50 is the point on the concentration scale where inhibition reaches its midpoint. `CCOC(=O)C1CCN(Cc2ccc(O)c3ncccc23)CC1`: the concentration giving a half-maximal response (EC50) in assay [3] is 3.26 µM (active); in assay [4], > 38 µM (not active); in assay [7], 22.2 µM (active); in [9] it was > 60 µM (not active). Besides, the AC50 in assay [5] is 3.76 µM (active). The results for the half-maximal inhibitory concentration (IC50) in assay [6] and in assay [8] were > 50 µM (not active) and 5.25 µM (active), respectively.

In the case of `Cc1ccc(Nc2cnn(C34CC5CC(CC(CC(=O)O)(C5)C3)C4)c(=O)c2Cl)cc1C`, the results for the IC50 in assay [10] and in assay [11] were > 55.7 µM (not active) and 18.8 µM (not active), respectively.

Turning to `Cc1ccc(/C=C/C2=Cc3c(sc(NC(=O)CSc4n[nH]c(N)n4)c3C#N)C(C)(C)C2)o1`, the EC50 in assay [12] is 7.52 µM (active); in assay [13], 7.17 µM (active).

With `CC(=O)Oc1ccc(N2C(=O)C3C4C=CC(CC4)C3C2=O)cc1` (stereo not given), the IC50 in [14] and in [15] was > 56.8 µM (inactive) throughout.

Consider `Cc1cccc(C)c1NC(=S)N/N=C/c1c(Cl)cccc1Cl`, for which the IC50 in [16] was > 50 µM (not active).

As to `Fc1ccc(C(c2ccc(F)cc2)N2CCN(C/C=C/c3ccccc3)CC2)cc1` [FLUNARIZINE DIHYDROCHLORIDE], the EC50 in [17] was 5.62 µM (active); in assay [12], 5.99 µM (active); in [13], 5.85 µM (active). In assay [18], the concentration at half-maximal activity (AC50) was 4.94 µM (active).

Values taken from ChEMBL document CHEMBL1201862, “PubChem BioAssay data set” (2004).
